Measurements as given in patent US20210322327A1, “EXTRACELLULAR VESICLES COMPRISING STING-AGONIST” (Codiak BioSciences, Inc., priority 2018, published 2021).

Assays:
CT26.CL25 cells = assay: CT26.CL25 colorectal tumor growth; format: in vivo, BALB/c mice; conditions: 0.012 μg free, days 13, 16, 19
Method: To test and expand in vivo efficacy to other types of tumors, BALB/c mice were inoculated subcutaneously with 5×10^5 CT26.CL25 cells (ATCC®; CRL-2639™), a murine colorectal cancer cell line engineered to stably express beta-galactosidase, or 5×10^5 CT26.WT cells (ATCC®; CRL-2638™) (n=5-7 mice per group). Thirteen, sixteen, and nineteen days post-inoculation the mice were injected intratumorally into CT26.CL25 tumor with exosomes, 0.012 μg of free 3-3 cAIMPdFSH, or 0.012 μg-3 cAIMPdFSH loaded in PTGFRN-overexpressing exosomes and into CT26.WT tumor with PBS, exosomes, 100 μg of free ML RR-S2 CDA, or 0.2 μg-3 cAIMPdFSH loaded in PTGFRN-overexpressing exosomes.

[1] = system: B16F10 murine melanoma cells; assay: Advanced B16F10 melanoma tumor growth; format: in vivo, C57BL/6 mice; conditions: days 10, 13, 16
Method: Treatment was started when tumor volume reached ˜ 50 mm3. To test the activity in advanced tumor, C57BL/6 mice were inoculated subcutaneously with 1×10^6 B16F10 murine melanoma cells (n=5 mice per group) and waited until tumor volume reached ˜100 mm^3. Ten, thirteen, and sixteen days post-inoculation, the mice were injected intratumorally with exosomes, 30 μg of free 3-3 cAIMPdFSH, 0.3 μg of free 3-3 cAIMPdFSH, 0.1 μg of 3-3 cAIMPdFSH loaded in PTGFRN-overexpressing exosomes, or 0.3 μg of 3-3 cAIMPdFSH loaded in PTGFRN-overexpressing exosomes. Tumor volumes were measured daily until day 28, and animals were sacrificed when tumor volume reached 2000 mm^3.

OVA-reactive splenocytes = assay: IFNγ ELISpot of splenocytes with OVA peptide SIINFEKL; format: in vivo, C57BL/6 mice
Method: As an orthogonal method to measure antigen-specific immunity, IFNγ-expression was measured by ELISpot according to standard protocols (ImmunoSpot®; Cellular Technology Limited). Splenocytes were homogenized to a single-cell suspension and plated (200,000 cells/well) in a plate coated with an anti-IFNγ antibody. The OVA peptide SIINFEKL was added to the cells for 18 hours to induce IFNγ production, cells were washed from the plate, and plate-bound IFNγ was detected using an orthogonal antibody (FIG. 41D). The total number of reactive spots per plate were counted and compared across groups using ImmunoSpot® software (Cellular Technology Limited).

[2] = system: OVA-reactive splenic T-cells; assay: OVA-specific memory T-cell response in E.G7-OVA model; format: in vivo, C57BL/6 mice
Method: STING pathway agonism in dendritic cells enhances antigen presentation, IFNβ production, and recruits CD8+ memory T-cells to elicit a durable adaptive immune response. To determine whether Exo STING could induce a memory T-cell response to a defined antigen, an antigen-specific T-cell response study was carried out using purified ovalbumin (OVA). C57BL/6 mice were injected intraperitoneally with 200 μg OVA mixed with either PBS, 20 μg ML RR-S2, 0.2 μg ML RR-S2, or 0.2 μg ML RR-S2 loaded in PTGFRN-overexpressing exosomes (n=4-10 mice per group). […] Isolated lymphocytes were analyzed by flow cytometry by measuring binding to immobilized tetrameric MHC class I bound to the OVA peptide SIINFEKL and phycoerythrin (PE) (iTAg Tetramer/PE—H-2 OVA; MBL®, Code #T03000). OVA-reactive memory T-cells were quantified by gating on PE, CD44, and CD8 positivity.
(§1) To test this hypothesis, C57BL/6 mice were inoculated subcutaneously with 1×10^6 E.G7-OVA cells (ATCC®; CRL-2113™), a murine T-cell lymphoma cell line engineered to stably express OVA and allow for modeling antigen-specific T-cell responses in mice (n=5 mice per group). […] Splenic T-cells from all groups were isolated and measured for OVA-specific reactivity as described in Example 11.

E.G7-OVA cells = assay: E.G7-OVA T-cell lymphoma tumor growth, intratumoral injection; format: in vivo, C57BL/6 mice
Method: as §1, with “group). Ten, 13, and 16 days post-inoculation the mice were injected intratumorally with PBS, 20 μg ML RR-S2, 0.2 μg ML RR-S2, or 0.2 μg ML RR-S2 loaded in PTGFRN-overexpressing exosomes).” for “group).”

[3] = system: IFNβ, CXCL9, CXCL10, IFNγ gene expression; serum cytokines; assay: Cytokine levels after single intratumoral dose in B16F10 tumor-bearing mice; format: in vivo, C57BL/6 mice; conditions: 20 μg single intratumoral dose, four hours post-injection
Method: Four groups of C57BL/6 mice (3-4 mice per group) were inoculated subcutaneously with 5×10^5 B16F10 tumor cells. Eight days post-inoculation the mice were injected with a single intratumoral dose of PBS, 20 μg of free ML RR-S2 CDA, 0.2 μg of free ML RR-S2 CDA, or 0.2 μg of ML RR-S2 CDA loaded in PTGFN-overexpressing exosomes (exo ML RR-S2 CDA). Four hours post-injection the tumors, draining lymph nodes, spleens, and serum were collected and cytokine levels were measured.
To confirm that the effects observed in FIGS. 20-23 were applicable to other STING agonists, B16F10 subcutaneous tumor-bearing mice were injected with 20 μg of free 3-3 cAIMPdFSH, 0.2 μg of free 3-3 cAIMPdFSH, or 0.2 μg of 3-3 cAIMPdFSH loaded in PTGFRN-overexpressing exosomes (exo 3-3 cAIMPdFSH).

Row | Structure (SMILES) | tumor growth compared to control (CT26.CL25 cells) | tumor growth compared to exosomes control ([1]; 0.3 μg free, start ~100 mm^3) | tumor burden compared to exosomes control ([1]; 30 μg free) | OVA-reactivity (IFNγ spots) (OVA-reactive splenocytes; 0.2 μg IP) | OVA-reactivity (IFNγ spots) (OVA-reactive splenocytes; 20 μg IP) | memory T-cell response (OVA-specific) ([2]; 0.2 μg intratumoral) | memory T-cell response (OVA-specific) ([2]; 20 μg intratumoral) | tumor growth compared to PBS (E.G7-OVA cells; 0.2 μg intratumoral days 10, 13, 16) | tumor growth compared to PBS (E.G7-OVA cells; 20 μg intratumoral days 10, 13, 16) | IFNβ gene expression levels in the tumor [3]
1 | Nc1ncnc2c1ncn2[C@@H]1O[C@@H]2COP(=O)(S)O[C@H]3[C@@H](F)[C@H](n4cnc5c(=O)[nH]cnc54)O[C@@H]3COP(O)(=S)O[C@H]2[C@H]1F (stereo partly shown) [3-3 cAIMPdFSH, 3′3′-cAIMPdFSH] | moderately attenuated tumor growth | tumor growth was not affected | great reduction of tumor burden |  |  |  |  |  |  | 
2 | Nc1ncnc2c1ncn2[C@@H]1O[C@@H]2COP(O)(=S)O[C@@H]3C(O)[C@@H](COP(O)(=S)O[C@H]2[C@H]1O)O[C@H]3n1cnc2c(N)ncnc21 (stereo partly shown) [ML RR-S2 CDA] |  |  |  | very low levels of OVA-reactivity | highly reactive | modest memory T-cell response | potent memory T-cell response | moderately attenuated tumor growth | dramatically prevented tumor growth | higher than the 0.2 μg free STING agonist and PBS groups
